pEC50: −log10 of the molar value. Starred links: 1 amine or outer side, 2 acyl side, 3 side chain; linkers in the order of their positions; H or OH if unused. Non-standard residues stand in square brackets, D forms with d. *: point of attachment. γGlu = O=C(O)[C@H](CCC(=O)[*:2])N[*:1]; βAsp = O=C(O)[C@H](CC(=O)[*:2])N[*:1]; C12 diacid = O=C(O)CCCCCCCCCCC(=O)*; Myristoyl = CCCCCCCCCCCCCC(=O)*; Lauroyl = CCCCCCCCCCCC(=O)*; Decanoyl = CCCCCCCCCC(=O)*

The nature of series [1]: Hydrophobicity: retention time during reverse phase HPLC. As to conditions: Acquity CSH C18; pH 7.2 buffer/CH3CN gradient; 40° C. The class given is physicochemical. From the text: The retention time (RT) during reverse phase HPLC was taken as a measure of hydrophobicity of an N-terminally modified peptide or oligopeptide of the invention, where the connection is: The longer the RT, the more hydrophobic N-terminally modified peptide or oligopeptide. The following running conditions were applied during HPLC analysis:
Buffer B: 70% (v/v) aq. CH3CN

Series [2] relates to Trypsin. Nature of the series: Inhibition of enzymatic degradation of a model GLP-1 (FRET substrate) by trypsin. As to conditions: for pEC50: read-out: EC50 Trypsin (0.001 mg/ml), 0.001 mg/ml trypsin, 37° C. The class given is biochemical. From the text: (§1) The use of Förster resonance energy transfer (FRET), also known as fluorescence resonance energy transfer, substrates to monitor activity of proteolytic enzymes is known in the field (for example Anjuere, F. et al. (1993). Biochem J 291 (Pt 3), 869-73).
(§2) Model GLP-1 analogue was designed as FRET substrate by incorporation of 7-Methoxycoumarin-4-acetic acid (MCA) group as the donor chromophore and dinitrophenol group (DNP) as the acceptor chromophore.
(§3) An assay following the increase in fluorescence as a function of time was established in 96 well format using Varioskan Flash Multimode Meter (Thermo Scientific). Each well contained 70 μl of Dulbecco's phosphate buffer saline (Invitrogen catalogue #14190-094), 10 μl of 100 μM GLP-1 FRET substrate, 10 μl of N-terminally acylated peptide or oligopeptide of the invention in varying concentration and 10 μl of a stock solution of an enzyme (chymotrypsin, trypsin, elastase, etc.). The incubations were performed at 37° C. Fluorescence (320 nm excitation wavelength and 405 nm emission wavelength) was measured immediately after addition of the enzyme to the 96 well plate and also every minute for at least the next 30 minutes. The concentration of the enzyme was optimized to allow determination of slopes for the time course of initial fluorescence increase with and without the N-terminally acylated peptides or oligopeptides of the invention. The slopes were determined by linear regression of the linear part of the fluorescence trace (for example, the first 10 min of the reaction). Each assay was performed in duplicate and average of the two traces was included in the calculations. The relative effect of N-terminally acylated peptide or oligopeptides of the invention on enzymatic degradation of GLP-1 FRET substrate was obtained by comparison of the slopes achieved by the same concentration of the N-terminally acylated peptide or oligopeptides. […] This was done by plotting the slopes achieved with different concentrations of the N-terminally acylated peptide or oligopeptides of the invention as a function of their concentrations and fitting the experimental results using, for example, sigmoidal logistic regression (2 parameters, Sigma Plot v 11). Inhibition constants for the interaction between the N-terminally acylated peptide or oligopeptides of the invention and proteolytic enzymes were also obtained by performing the assay described above with varying concentrations of the inhibitor and substrate and analyzing the results, for example, by double reciprocal transformation as known to the person skilled in the art and described for example in Hubalek, F. et al., J. Med. Chem. 47, 1760-1766 (2004).
(§4) The EC50 was determined for the following compounds. EC50±standard error is reported if the results of at least 3 independent measurements were available.

Series [3] concerns Chymotrypsin. Nature of the series: Inhibition of enzymatic degradation of a model GLP-1 (FRET substrate) by chymotrypsin. The class given is biochemical. As to conditions: for pEC50: read-out: EC50 Chymotrypsin (0.001 mg/ml), 0.001 mg/ml chymotrypsin, 37° C., ± standard error if at least 3 measurements.
Source text: as §1, §2, §3, §4

Setting [4] is: compound 0.1 mM, buffer containing 8% DMSO.

For the substance Ala-Ala-Pro-Phe-OH [Example 14], the “RT (retention time during reverse phase HPLC as a measure of hydrophobicity)” value (shortened to “RT”) in series [1] amounted to 3.08 min. Further, the “Slope of the initial increase in fluorescence obtained during incubation with 0.001 mg/ml Trypsin” value in series [2] (compound 1 mM) came out at 4.46. Moreover, the “Slope of the initial increase in fluorescence obtained during incubation with 0.001 mg/ml Chymotrypsin” value in series [3] (compound 1 mM) worked out at 3.53.
Consider “N-decanoyl-Ala-Ala-Pro-Arg-OH (Decanoyl-AAPR-OH; SMILES CCCCCCCCCC(=O)N[C@@H](C)C(=O)N[C@@H](C)C(=O)N1CCC[C@H]1C(=O)N[C@@H](CCCNC(=N)N)C(=O)O) [Example 20]”, for which the “RT” value in series [1] stood at 3.79 min. For the same substance, the pEC50 in series [3] is < 3.30.
For “N-dodecandioyl-Ala-Ala-Pro-Phe-OH ({C12 diacid}-AAPF-OH) [Example 15]”, the “RT” value in series [1] is 3.13 min. Also, the “Slope of the initial increase in fluorescence obtained during incubation with 0.001 mg/ml Trypsin” value in series [2] (compound 1 mM) was found to be 4.17. In series [3] (compound 1 mM), the “Slope of the initial increase in fluorescence obtained during incubation with 0.001 mg/ml Chymotrypsin” value is recorded as 2.07.
With “N-dodecanoyl-Aib-Aib-Pro-Phe-OH [Example 7]”, the “RT” value in series [1] came to 8.06 min. Also, in series [2] (compound 1 mM), the “Slope of the initial increase in fluorescence obtained during incubation with 0.001 mg/ml Trypsin” value is 0.49. In series [3] (compound 1 mM), the “Slope of the initial increase in fluorescence obtained during incubation with 0.001 mg/ml Chymotrypsin” value is reported as 0.34.
Turning to “N-dodecanoyl-Ala-Ala-Ala-Ala-Pro-Phe-OH [Example 19]”, in series [1], the “RT” value worked out at 6.57 min. The results for the pEC50 in series [2] and in series [3] were 4.42 and 3.92, respectively.
Consider “N-dodecanoyl-Ala-Ala-Ala-Pro-Phe-OH [Example 18]”, for which the “RT” value in series [1] is recorded as 6.59 min. For the same substance, in series [3], the pEC50 was 3.78.
For “N-dodecanoyl-Ala-Ala-Ala-Pro-Tyr-OH [Example 56]”, the “RT” value in series [1] was determined as 5.74 min. Besides, in series [2] (setting [4]), the “Slope of the initial increase in fluorescence obtained during incubation with 0.001 mg/ml Trypsin” value was 1.92. For the same substance, the “Slope of the initial increase in fluorescence obtained during incubation with 0.001 mg/ml Chymotrypsin” value in series [3] (setting [4]) amounted to 0.59.
With “N-dodecanoyl-Ala-Ala-Ala-Tyr-OH (Lauroyl-AAAY-OH; SMILES CCCCCCCCCCCC(=O)N[C@@H](C)C(=O)N[C@@H](C)C(=O)N[C@@H](C)C(=O)N[C@@H](Cc1ccc(O)cc1)C(=O)O) [Example 57]”, the “RT” value in series [1] is reported as 5.73 min. Further, in series [2] (setting [4]), the “Slope of the initial increase in fluorescence obtained during incubation with 0.001 mg/ml Trypsin” value was found to be 1.59. Further, the “Slope of the initial increase in fluorescence obtained during incubation with 0.001 mg/ml Chymotrypsin” value in series [3] (setting [4]) is 1.65.
In the case of “N-dodecanoyl-Ala-Ala-Arg-Tyr-OH (Lauroyl-AARY-OH; SMILES CCCCCCCCCCCC(=O)N[C@@H](C)C(=O)N[C@@H](C)C(=O)N[C@@H](CCCNC(=N)N)C(=O)N[C@@H](Cc1ccc(O)cc1)C(=O)O) [Example 58]”, the “RT” value in series [1] was 4.87 min. Further, the “Slope of the initial increase in fluorescence obtained during incubation with 0.001 mg/ml Trypsin” value in series [2] (setting [4]) was determined as 1.98. Further, the “Slope of the initial increase in fluorescence obtained during incubation with 0.001 mg/ml Chymotrypsin” value in series [3] (setting [4]) was 0.28.
In the case of “N-dodecanoyl-Ala-Ala-Asn-Tyr-OH (Lauroyl-AANY-OH; SMILES CCCCCCCCCCCC(=O)N[C@@H](C)C(=O)N[C@@H](C)C(=O)N[C@@H](CC(N)=O)C(=O)N[C@@H](Cc1ccc(O)cc1)C(=O)O) [Example 59]”, the “RT” value in series [1] was determined as 7.88 min. In addition, in series [2] (setting [4]), the “Slope of the initial increase in fluorescence obtained during incubation with 0.001 mg/ml Trypsin” value came to 1.72. Also, the “Slope of the initial increase in fluorescence obtained during incubation with 0.001 mg/ml Chymotrypsin” value in series [3] (setting [4]) was 1.79.
Regarding “N-dodecanoyl-Ala-Ala-Asp-Tyr-OH (Lauroyl-AADY-OH; SMILES CCCCCCCCCCCC(=O)N[C@@H](C)C(=O)N[C@@H](C)C(=O)N[C@@H](CC(=O)O)C(=O)N[C@@H](Cc1ccc(O)cc1)C(=O)O) [Example 60]”, the “RT” value in series [1] is given as 4.33 min. For the same substance, in series [2] (setting [4]), the “Slope of the initial increase in fluorescence obtained during incubation with 0.001 mg/ml Trypsin” value turned out to be 1.73. For the same substance, the “Slope of the initial increase in fluorescence obtained during incubation with 0.001 mg/ml Chymotrypsin” value in series [3] (setting [4]) came to 0.91.
Regarding “N-dodecanoyl-Ala-Ala-Pro-Phe-Pro-OH [Example 24]”, in series [1], the “RT” value worked out at 6.88 min. Also, the pEC50 in series [3] was 3.42.
For “N-dodecanoyl-Ala-Ala-Pro-Tyr-OH [Example 17] (Lauroyl-AAPY-OH; SMILES CCCCCCCCCCCC(=O)N[C@@H](C)C(=O)N[C@@H](C)C(=O)N1CCC[C@H]1C(=O)N[C@@H](Cc1ccc(O)cc1)C(=O)O)”, in series [1], the “RT” value is recorded as 5.83 min.
“N-dodecanoyl-γGlu-Ala-Ala-Pro-Arg-OH [Example 25]”: the “RT” value in series [1] turned out to be 3.66 min. Further, the pEC50 in series [3] was < 3.30.
In the case of “N-dodecanoyl-γGlu-Ala-Pro-Arg-OH (Lauroyl-[γGlu]APR-OH; SMILES CCCCCCCCCCCC(=O)N[C@@H](CCC(=O)N[C@@H](C)C(=O)N1CCC[C@H]1C(=O)N[C@@H](CCCNC(=N)N)C(=O)O)C(=O)O) [Example 21]”, in series [1], the “RT” value worked out at 3.66 min. In addition, the pEC50 in series [3] was < 3.30.
As for “N-dodecanoyl-γGlu-Ala-Pro-Phe-OH (Lauroyl-[γGlu]APF-OH; SMILES CCCCCCCCCCCC(=O)N[C@@H](CCC(=O)N[C@@H](C)C(=O)N1CCC[C@H]1C(=O)N[C@@H](Cc1ccccc1)C(=O)O)C(=O)O) [Example 22]”, the “RT” value in series [1] was 4.09 min. In addition, the pEC50 in series [3] was < 3.30.
With “N-tetradecanoyl-Lys-Ala-Arg-Pro-Phe-OH [Example 193]”, the pEC50 in series [2] is 3.77; in series [3], 4.05.
On to “N-tetradecanoyl-Thr-Ala-Ala-Pro-Phe-OH [Example 173]”, for which the pEC50 in series [2] is 4.03; in series [3] it was 4.29.
For the substance “N-tetradecanoyl-Thr-Ala-Ala-Pro-Tyr-OH [Example 158]”, the pEC50 in series [2] was 3.95; in series [3], 4.24.
Take “N-tetradecanoyl-Trp-Pro-Tyr-OH [Example 153]”: the values for the pEC50 in series [2] and in series [3] were 4.37 and 4.42, respectively.
On to “N-tetradecanoyl-bAsp-Ala-Ala-Pro-Phe-OH [Example 164]”, for which the pEC50 was 3.46 in series [2] and 4.27 in series [3].
Turning to “N-tetradecanoyl-bAsp-Ala-Pro-Phe-OH (Myristoyl-[βAsp]APF-OH; SMILES CCCCCCCCCCCCCC(=O)N[C@@H](CC(=O)N[C@@H](C)C(=O)N1CCC[C@H]1C(=O)N[C@@H](Cc1ccccc1)C(=O)O)C(=O)O) [Example 165]”, the figures for the pEC50 in series [2] and in series [3] were 3.92 and 3.81, respectively.
Regarding “N-tetradecanoyl-eLys-His-Ala-Arg-Pro-Phe-OH [Example 196]”, the values for the pEC50 in series [2] and in series [3] were 4.12 and 5.22, respectively.
For “N-tetradecanoyl-βAla-βAla-βAla-βAla-Pro-Phe-OH [Example 137]”, the “RT” value in series [1] turned out to be 7.7 min. Moreover, the pEC50 in series [3] is < 3.30.
Regarding “N-tetradecanoyl-γGlu-Ala-Arg-Pro-Phe-OH [Example 179]”, the pEC50 was 4.10 in series [2] and 4.08 in series [3].
“N-tetradecanoyl-γGlu-Ala-Pro-D-Trp-OH [Example 177]”: the pEC50 in series [2] was 3.70; in series [3], 4.02.
For “N-tetradecanoyl-γGlu-Ala-Pro-Trp-OH (Myristoyl-[γGlu]APW-OH; SMILES CCCCCCCCCCCCCC(=O)N[C@@H](CCC(=O)N[C@@H](C)C(=O)N1CCC[C@H]1C(=O)N[C@@H](Cc1c[nH]c2ccccc12)C(=O)O)C(=O)O) [Example 176]”, the pEC50 is 4.20 in series [2] and 3.98 in series [3].
Taken in the same sequence, the figures for “N-tetradecanoyl-γGlu-D-Ala-D-Ala-D-Pro-D-Phe-OH [Example 156]” were < 3.30 and 3.37.
Turning to “N-tetradecanoyl-γGlu-His-Ala-Arg-Pro-Phe-OH [Example 194]”, the pEC50 in series [2] is 4.08; in series [3], 4.72.
“N-tetradecanoyl-γGlu-βAla-βAla-Pro-Phe-OH [Example 139]”: the “RT” value in series [1] turned out to be 4.95 min. For the same substance, the pEC50 in series [3] was < 3.30.

These data come from US20150038435A1, “N-TERMINALLY MODIFIED OLIGOPEPTIDES AND USES THEREOF” (Novo Nordisk A/S, priority 2012, published 2015).
